Experimental data: US20070264355A1, “BINARY COMPOSITIONS AND METHODS FOR STERILIZATION” (Binary, LLC, priority 2005, published 2007)

Key:
Bacillus subtilis spores = assay: Microbicidal activity of commonly used antiseptics against Bacillus subtilis spores; type: cell-based; conditions: inoculum 1865000 CFU
Description: (§1) The performance of commonly used antiseptics was tested against Bacillus subtilis and Staphylococcus aureus, following the general procedure of Example 1, to assess the improvement provided by the binary system over these compounds.
After 60 minutes of exposure to the organisms, the individual antiseptics, indicated in Table 15 and Table 16, were neutralized using the corresponding neutralizing solutions prepared as listed below in Materials. Chlorhexidine and IPA were neutralized with 500 microliters of a solution containing 3% Saponin, 3% Tween-80, 0.3% lecithin, and 0.1% histidine. Povidone Iodine was neutralized with 500 microliters of thiosulfate solution (2.4%).

Staphylococcus aureus = assay: Microbicidal activity of commonly used antiseptics against Staphylococcus aureus; type: cell-based; conditions: inoculum 1475000 CFU
Description: as §1
[…] Chlorhexidine and IPA were neutralized with 500 microliters of a solution containing 3% Saponin, 3% Tween-80, 0.3% lecithin, and 0.1% histidine. Povidone Iodine was neutralized with 500 microliters of thiosulfate solution (2.4%).

[1] = two percent, compared to 70% isopropyl alcohol and 10% povidone-iodine; cited from earlier work

[H]/N=C(\N/C(=N/[H])NCCCCCCNC(=N)NC(=N)Nc1ccc(Cl)cc1)Nc1ccc(Cl)cc1 [Chlorhexidine, Chlorhexidine Gluconate]
Log 10 (CFU + 1) Survivors (Bacillus subtilis spores; Chlorhexidine 0.020% 60 min): 5.8
Log Reduction (Bacillus subtilis spores; Chlorhexidine 0.020% 60 min): 0.4
Total Viability (CFU) (Bacillus subtilis spores; Chlorhexidine 0.020% 60 min): 672000 CFU
Log 10 (CFU + 1) Survivors (Bacillus subtilis spores; Chlorhexidine 0.200% 60 min): 4.3
Log Reduction (Bacillus subtilis spores; Chlorhexidine 0.200% 60 min): 2.0
Total Viability (CFU) (Bacillus subtilis spores; Chlorhexidine 0.200% 60 min): 20020 CFU
Log 10 (CFU + 1) Survivors (Bacillus subtilis spores; Chlorhexidine 2% 60 min): 5.0
Log Reduction (Bacillus subtilis spores; Chlorhexidine 2% 60 min): 1.3
Total Viability (CFU) (Bacillus subtilis spores; Chlorhexidine 2% 60 min): 102200 CFU
Log 10 (CFU + 1) Survivors (Bacillus subtilis spores; Chlorhexidine 20% 60 min): 5.5
Log Reduction (Bacillus subtilis spores; Chlorhexidine 20% 60 min): 0.7
Total Viability (CFU) (Bacillus subtilis spores; Chlorhexidine 20% 60 min): 350000 CFU
Log 10 (CFU + 1) Survivors (Staphylococcus aureus; Chlorhexidine 0.020% 15 min): 0.0
Log Reduction (Staphylococcus aureus; Chlorhexidine 0.020% 15 min): 6.2
Total Viability (CFU) (Staphylococcus aureus; Chlorhexidine 0.020% 15 min): 0 CFU
Log 10 (CFU + 1) Survivors (Staphylococcus aureus; Chlorhexidine 0.200% 15 min): 0.0
Log Reduction (Staphylococcus aureus; Chlorhexidine 0.200% 15 min): 6.2
Total Viability (CFU) (Staphylococcus aureus; Chlorhexidine 0.200% 15 min): 0 CFU
Log 10 (CFU + 1) Survivors (Staphylococcus aureus; Chlorhexidine 2% 15 min): 0.0
Log Reduction (Staphylococcus aureus; Chlorhexidine 2% 15 min): 6.2
Total Viability (CFU) (Staphylococcus aureus; Chlorhexidine 2% 15 min): 0 CFU
Log 10 (CFU + 1) Survivors (Staphylococcus aureus; Chlorhexidine 20% 15 min): 0.0
Log Reduction (Staphylococcus aureus; Chlorhexidine 20% 15 min): 6.2
Total Viability (CFU) (Staphylococcus aureus; Chlorhexidine 20% 15 min): 0 CFU
prevention of catheter-related infections [1]: superior
